Experimental data from patent US6630615B1, “Defense-related signaling genes and methods of use” (Pioneer Hi-Bred International, Inc., priority 1999, dated 2003).
Entries after “also recorded” stand apart in the source; their conditions may differ.

Test system: sunflower NCE gene expression
Experiment: Northern blot analysis of NCE gene transcript levels under different chemical treatments
Assay type: in vivo
Settings: six-week-old SMF3 sunflower plants sprayed with 5 mM oxalic acid, 5 mM H2O2, 5 mM salicylic acid or 45 μM jasmonic acid (0.1% ethanol); leaf samples at 0, 6, 12, 24 hours
Procedure: FIG. 4 depicts the results of a Northern blot analysis of NCE gene transcript levels under different chemical treatments. Six-week-old sunflower plants were sprayed with oxalic acid (OA) (5 mM), H2O2 (5 mM), salicylic acid (SA) (5 mM), and jasmonic acid (JA) (45 μM in 0.1% ethanol). The leaf samples were collected at 0, 6, 12, and 24 hours after the applications and immediately frozen in liquid nitrogen. Twenty μg of total RNA was loaded in each sample lane. (CK, control)
For fungal infection and chemical treatments, SMF3 sunflower plants were planted in four-inch pots and grown in greenhouse for the first four weeks. After transfer to the growth chamber, the plants were maintained under 12-hour photoperiod at 22° C. with an 80% relative humidity. Six-week old plants were inoculated with Sclerotinid-infected carrot plugs or sprayed with an aqueous solution of either 5 mM oxalic acid, 5 mM H2O2, 5 mM salicylic acid or 45 μM jasmonic acid (with 0.1% ethanol). For each plant, three petioles were inoculated and wrapped with a 1 inch×2 inch piece of parafilm. Plant tissue samples were harvested at different time points and immediately frozen in liquid nitrogen and then stored at −80° C.
Plant materials were ground in liquid nitrogen, and total RNA was extracted by the Tri-Reagent method. RNA profiling was conducted using CuraGen Corporation's proprietary method sold under the trademark GENECALLING. See U.S. Pat. No. 5,871,697, herein incorporated by reference. Profiles of RNA samples prepared from combined leaf and stem tissues of six-week-old oxox sunflower plants were compared to profiles of similar RNA samples from of six-week-old SMF3 plants.
Total RNA (20 μg) was separated in a 1% agarose gel containing formaldehyde. Ethidium bromide was included to verify equal loading of RNA. After transfer onto Hybond N+membrane, the blots were hybridized with ^32P-labeled NCE, AAP, or GRP cDNA probes. As a control, a duplicate blot was hybridized with a probe complementary to 18S rRNA. Hybridization and washing conditions were performed according to Church et al. ((1984) Proc. Natl. Acad. Sci. USA 81:1991-1995).

Row | Structure (SMILES) | NCE gene expression (transcript level, Northern blot)
1 | OO [H2O2] | negatively regulated; also recorded: down-regulated
2 | CC/C=C\C[C@H]1C(=O)CC[C@@H]1CC(=O)O [jasmonic acid] | negatively regulated; also recorded: down-regulated
3 | O=C(O)C(=O)O [oxalic acid] | negatively regulated
4 | O=C(O)c1ccccc1O [salicylic acid] | negatively regulated; also recorded: down-regulated
